Test results: the NIST ThermoML archive (doi:10.1016/j.fluid.2005.11.014)
Several values for one entry are separate records, joined by “and”; a condition that tells them apart may be missing. Equal entries are not always repeated. Numbers after ± are expanded uncertainties.

conditions: 313.15 K; Liquid; Closed cell (Static) method

vapor or sublimation pressure | Structure (SMILES)
24.39 ± 0.097 kPa and 24.37 ± 0.097 kPa | c1ccccc1 [benzene]
7.003 ± 0.038 kPa and 7 ± 0.038 kPa | CCCO [propan-1-ol]

Structure (SMILES) | vapor or sublimation pressure
CC(C)OC(C)C [diisopropyl ether] | 37.1 ± 0.15 kPa and 37.11 ± 0.15 kPa and 37.12 ± 0.15 kPa
